Data taken from patent US10807992B2, “Single enantiomer antiparasitic compounds” (priority 2017, dated 2020).

Test system: Ixodes scapularis
Test: In vitro contact activity against adult ticks (coated vial), I. scapularis
Details: for mortality at 0.006 µM: Trial 1, dose 0.006 μM; for mortality at 0.024 µM: Trial 1, dose 0.024 μM; for mortality at 0.098 µM: Trial 1, dose 0.098 μM; for mortality at 0.39 µM: Trial 1, dose 0.39 μM; for mortality at 1.56 µM: Trial 1, dose 1.56 μM; for mortality at 6.25 µM: Trial 1, dose 6.25 μM; for mortality at 25 µM: Trial 1, dose 25 μM; for mortality at 100 µM: Trial 1, dose 100 μM
Experimental: Rhipicephalus sanguineus, Dermacentor variabilis, Amblyomma americanum, (Ecto Services, Inc., Henderson, N.C.) and Ixodes scapularis (Oklahoma State University, Stillwater, Okla.) aged between 2-4 weeks post molt were held in an environmental chamber at 24° C., 80% humidity with 12-hour light/dark cycles.
For tick assays, vial caps were pre-drilled with a single hole in the center of each cap to allow air exchange. A filter paper (Whatman Grade 540 2.1 cm) was placed in the lid of each vial. An aliquot from each compound stock was added to an acetone/triton solution to achieve the desired top doses for the study. Serial dilutions were conducted from the top dose (i.e. 100 ppm) to achieve the desired titration range for EC50 and EC90 determination. For R. sanguineus, D. variabilis, and A. americanum, the final DMSO concentration in each test vial was 0.5%. For I. scapularis, compounds were solubilized directly in an acetone/triton solution due to I. scapularis' sensitivity to DMSO. A 459 μL aliquot of each compound formulation was transferred to a vial containing a Whatman Grade 540 2.1 cm filter paper. Vials were immediately placed on an unheated roller unit to allow for an even coating of the vial walls. After vials were coated, 41 μL of each compound formulation was added to the filter paper embedded in each vial cap. Each cap was allowed to dry. The vials were loosely capped and allowed to dry for a minimum of four hours in a chemical fume hood.
Compounds tested were: the C1 racemate, C1 (R) enantiomer, and the C1 (S) enantiomer. For Trial 3, the C1 (R) enantiomer and the C1 (S) enantiomer were further chiral purified to achieve >99% purity.
Ten adult ticks were added to each vial and held at 24° C., 80% humidity with 12-hour light/dark cycles. Adult ticks were assessed for percent mortality at various time points between 2 hours and 48 hours post infestation. Ticks were stimulated on a heated roller unit and evaluated. Ticks showing no movement, or very slow and uncoordinated movement were noted as dead.

Compound `O=C(CC(F)(F)F)N1CC2(C1)OCc1cc(C3=NSC(c4cc(Cl)c(F)c(Cl)c4)(C(F)(F)F)C3)ccc12` (racemic) [C1 racemate, 1-[6-[5-(3,5-dichloro-4-fluoro-phenyl)-5-(trifluoromethyl)-4H-isothiazol-3-yl]spiro[1H-isobenzofuran-3,3′-azetidine]-1′-yl]-3,3,3-trifluoro-propan-1-one] has a mortality at 0.006 µM (2 h, Rep1) of 0%, a mortality at 0.006 µM (2 h, Rep2) of 0% and a mortality at 0.024 µM (2 h, Rep1) of 0%. For the same compound, the mortality at 0.024 µM (2 h, Rep2) was 0%, the mortality at 0.098 µM (2 h, Rep1) was 0% and the mortality at 0.098 µM (2 h, Rep2) was 0%. The mortality at 0.39 µM (2 h, Rep1) was 0%, the mortality at 0.39 µM (2 h, Rep2) was 0% and the mortality at 1.56 µM (2 h, Rep1) was 0%. The mortality at 1.56 µM (2 h, Rep2) was 0%, the mortality at 6.25 µM (2 h, Rep1) was 0% and the mortality at 6.25 µM (2 h, Rep2) was 0%. It also gave a mortality at 25 µM (2 h, Rep1) of 0%, a mortality at 25 µM (2 h, Rep2) of 0% and a mortality at 100 µM (2 h, Rep1) of 0%. The mortality at 100 µM (2 h, Rep2) was 0%, the mortality at 0.006 µM (6 h, Rep1) was 0% and the mortality at 0.006 µM (6 h, Rep2) was 0%. The mortality at 0.024 µM (6 h, Rep1) was 0%, the mortality at 0.024 µM (6 h, Rep2) was 0% and the mortality at 0.098 µM (6 h, Rep1) was 0%. It also gave a mortality at 0.098 µM (6 h, Rep2) of 0%, a mortality at 0.39 µM (6 h, Rep1) of 0% and a mortality at 0.39 µM (6 h, Rep2) of 0%. The mortality at 1.56 µM (6 h, Rep1) was 0%, the mortality at 1.56 µM (6 h, Rep2) was 0% and the mortality at 6.25 µM (6 h, Rep1) was 0%. The mortality at 6.25 µM (6 h, Rep2) was 0%, the mortality at 25 µM (6 h, Rep1) was 10% and the mortality at 25 µM (6 h, Rep2) was 40%. It also gave a mortality at 100 µM (6 h, Rep1) of 100%, a mortality at 100 µM (6 h, Rep2) of 50% and a mortality at 0.006 µM (12 h, Rep1) of 0%. The mortality at 0.006 µM (12 h, Rep2) was 0%, the mortality at 0.024 µM (12 h, Rep1) was 0% and the mortality at 0.024 µM (12 h, Rep2) was 0%. It also gave a mortality at 0.098 µM (12 h, Rep1) of 0%, a mortality at 0.098 µM (12 h, Rep2) of 0% and a mortality at 0.39 µM (12 h, Rep1) of 0%. For the same compound, the mortality at 0.39 µM (12 h, Rep2) was 10%, the mortality at 1.56 µM (12 h, Rep1) was 0% and the mortality at 1.56 µM (12 h, Rep2) was 0%. For the same compound, the mortality at 6.25 µM (12 h, Rep1) was 0%, the mortality at 6.25 µM (12 h, Rep2) was 70% and the mortality at 25 µM (12 h, Rep1) was 50%. For the same compound, the mortality at 25 µM (12 h, Rep2) was 70%, the mortality at 100 µM (12 h, Rep1) was 100% and the mortality at 100 µM (12 h, Rep2) was 100%. The mortality at 0.006 µM (24 h, Rep1) was 0%, the mortality at 0.006 µM (24 h, Rep2) was 0% and the mortality at 0.024 µM (24 h, Rep1) was 0%. It also gave a mortality at 0.024 µM (24 h, Rep2) of 30%, a mortality at 0.098 µM (24 h, Rep1) of 0% and a mortality at 0.098 µM (24 h, Rep2) of 20%. For the same compound, the mortality at 0.39 µM (24 h, Rep1) was 50%, the mortality at 0.39 µM (24 h, Rep2) was 50% and the mortality at 1.56 µM (24 h, Rep1) was 10%. The mortality at 1.56 µM (24 h, Rep2) was 30%, the mortality at 6.25 µM (24 h, Rep1) was 80% and the mortality at 6.25 µM (24 h, Rep2) was 100%. It also gave a mortality at 25 µM (24 h, Rep1) of 90%, a mortality at 25 µM (24 h, Rep2) of 100% and a mortality at 100 µM (24 h, Rep1) of 100%. For the same compound, the mortality at 100 µM (24 h, Rep2) was 100%, the mortality at 0.006 µM (48 h, Rep1) was 10% and the mortality at 0.006 µM (48 h, Rep2) was 0%. It also gave a mortality at 0.024 µM (48 h, Rep1) of 10%, a mortality at 0.024 µM (48 h, Rep2) of 30% and a mortality at 0.098 µM (48 h, Rep1) of 0%. It also gave a mortality at 0.098 µM (48 h, Rep2) of 60%, a mortality at 0.39 µM (48 h, Rep1) of 70% and a mortality at 0.39 µM (48 h, Rep2) of 100%. It also gave a mortality at 1.56 µM (48 h, Rep1) of 90%, a mortality at 1.56 µM (48 h, Rep2) of 80% and a mortality at 6.25 µM (48 h, Rep1) of 100%. For the same compound, the mortality at 6.25 µM (48 h, Rep2) was 100%, the mortality at 25 µM (48 h, Rep1) was 100% and the mortality at 25 µM (48 h, Rep2) was 100%. The mortality at 100 µM (48 h, Rep1) was 100% and the mortality at 100 µM (48 h, Rep2) was 100%.

`O=C(CC(F)(F)F)N1CC2(C1)OCc1cc(C3=NS[C@](c4cc(Cl)c(F)c(Cl)c4)(C(F)(F)F)C3)ccc12` [C1 (R) enantiomer, (R)-1-[6-[5-(3,5-dichloro-4-fluoro-phenyl)-5-(trifluoromethyl)-4H-isothiazol-3-yl]spiro[1H-isobenzofuran-3,3′-azetidine]-1′-yl]-3,3,3-trifluoro-propan-1-one] gave a mortality at 0.006 µM (2 h, Rep1) of 0%, a mortality at 0.006 µM (2 h, Rep2) of 0% and a mortality at 0.024 µM (2 h, Rep1) of 0%. The mortality at 0.024 µM (2 h, Rep2) was 0%, the mortality at 0.098 µM (2 h, Rep1) was 0% and the mortality at 0.098 µM (2 h, Rep2) was 0%. It also gave a mortality at 0.39 µM (2 h, Rep1) of 0%, a mortality at 0.39 µM (2 h, Rep2) of 0% and a mortality at 1.56 µM (2 h, Rep1) of 0%. It also gave a mortality at 1.56 µM (2 h, Rep2) of 0%, a mortality at 6.25 µM (2 h, Rep1) of 0% and a mortality at 6.25 µM (2 h, Rep2) of 0%. It also gave a mortality at 25 µM (2 h, Rep1) of 0%, a mortality at 25 µM (2 h, Rep2) of 0% and a mortality at 100 µM (2 h, Rep1) of 0%. It also gave a mortality at 100 µM (2 h, Rep2) of 0%, a mortality at 0.006 µM (6 h, Rep1) of 0% and a mortality at 0.006 µM (6 h, Rep2) of 0%. It also gave a mortality at 0.024 µM (6 h, Rep1) of 0%, a mortality at 0.024 µM (6 h, Rep2) of 0% and a mortality at 0.098 µM (6 h, Rep1) of 0%. The mortality at 0.098 µM (6 h, Rep2) was 0%, the mortality at 0.39 µM (6 h, Rep1) was 0% and the mortality at 0.39 µM (6 h, Rep2) was 0%. For the same compound, the mortality at 1.56 µM (6 h, Rep1) was 0%, the mortality at 1.56 µM (6 h, Rep2) was 0% and the mortality at 6.25 µM (6 h, Rep1) was 0%. The mortality at 6.25 µM (6 h, Rep2) was 0%, the mortality at 25 µM (6 h, Rep1) was 0% and the mortality at 25 µM (6 h, Rep2) was 0%. For the same compound, the mortality at 100 µM (6 h, Rep1) was 0%, the mortality at 100 µM (6 h, Rep2) was 0% and the mortality at 0.006 µM (12 h, Rep1) was 0%. For the same compound, the mortality at 0.006 µM (12 h, Rep2) was 0%, the mortality at 0.024 µM (12 h, Rep1) was 0% and the mortality at 0.024 µM (12 h, Rep2) was 0%. The mortality at 0.098 µM (12 h, Rep1) was 0%, the mortality at 0.098 µM (12 h, Rep2) was 0% and the mortality at 0.39 µM (12 h, Rep1) was 0%. It also gave a mortality at 0.39 µM (12 h, Rep2) of 0%, a mortality at 1.56 µM (12 h, Rep1) of 0% and a mortality at 1.56 µM (12 h, Rep2) of 0%. For the same compound, the mortality at 6.25 µM (12 h, Rep1) was 0%, the mortality at 6.25 µM (12 h, Rep2) was 0% and the mortality at 25 µM (12 h, Rep1) was 0%. The mortality at 25 µM (12 h, Rep2) was 0%, the mortality at 100 µM (12 h, Rep1) was 0% and the mortality at 100 µM (12 h, Rep2) was 0%. It also gave a mortality at 0.006 µM (24 h, Rep1) of 0%, a mortality at 0.006 µM (24 h, Rep2) of 0% and a mortality at 0.024 µM (24 h, Rep1) of 0%. It also gave a mortality at 0.024 µM (24 h, Rep2) of 0%, a mortality at 0.098 µM (24 h, Rep1) of 0% and a mortality at 0.098 µM (24 h, Rep2) of 0%. It also gave a mortality at 0.39 µM (24 h, Rep1) of 0%, a mortality at 0.39 µM (24 h, Rep2) of 0% and a mortality at 1.56 µM (24 h, Rep1) of 0%. The mortality at 1.56 µM (24 h, Rep2) was 0%, the mortality at 6.25 µM (24 h, Rep1) was 0% and the mortality at 6.25 µM (24 h, Rep2) was 0%. It also gave a mortality at 25 µM (24 h, Rep1) of 0%, a mortality at 25 µM (24 h, Rep2) of 0% and a mortality at 100 µM (24 h, Rep1) of 20%. It also gave a mortality at 100 µM (24 h, Rep2) of 0%, a mortality at 0.006 µM (48 h, Rep1) of 0% and a mortality at 0.006 µM (48 h, Rep2) of 0%. For the same compound, the mortality at 0.024 µM (48 h, Rep1) was 0%, the mortality at 0.024 µM (48 h, Rep2) was 0% and the mortality at 0.098 µM (48 h, Rep1) was 0%. For the same compound, the mortality at 0.098 µM (48 h, Rep2) was 0%, the mortality at 0.39 µM (48 h, Rep1) was 0% and the mortality at 0.39 µM (48 h, Rep2) was 0%. It also gave a mortality at 1.56 µM (48 h, Rep1) of 0%, a mortality at 1.56 µM (48 h, Rep2) of 0% and a mortality at 6.25 µM (48 h, Rep1) of 0%. The mortality at 6.25 µM (48 h, Rep2) was 0%, the mortality at 25 µM (48 h, Rep1) was 10% and the mortality at 25 µM (48 h, Rep2) was 30%. For the same compound, the mortality at 100 µM (48 h, Rep1) was 50% and the mortality at 100 µM (48 h, Rep2) was 30%.
